# Assay results reported in US5476661A, “Compositions for topical application to skin, hair and nails” (Elizabeth Arden Co., Division of Conopco, Inc., priority 1994, dated 1995).
# Entries after “also recorded” stand apart in the source; their conditions may differ. Read-outs that look alike come from different tables or passages of the source.
# Tests used:
# keratinocytes [1] = conditions: cited from earlier work
# [2] = test system: normal human keratinocytes; experiment: Vitamin D3 metabolites' uptake by keratinocytes (cell associated radioactivity); type: in vitro ADME; conditions: for Uptake by keratinocytes, cell associated radioactivity: 60 picomolar, mean of duplicate; for uptake rate by keratinocytes / skin cells: Table 6 summary
# Description: Normal human keratinocytes were grown to confluence in Keratinocyte growth medium (KGM) containing 0.15 mM calcium. Medium was changed to fresh medium. The cells were then incubated in duplicate with 10,000 cpm (60 picomolar, or 25 picogram/ml medium) of 25-OH-D3 or 1,25-(OH)2 D3 for various times (0 to 240 minutes). At different time intervals indicated in the Table below, the medium of appropriate wells were aspirated, and the wells were washed three times with a 0.2% bovine serum albumin solution in 50 mM Tris/0.15M sodium chloride buffer pH 7.4. After the wash the cells in the wells were dissolved in 0.1N sodium hydroxide, neutralized with 0.1N hydrochloric acid, mixed with 5 ml of scintillation fluid (Ecolume) and counted in a beta counter. The amount of cpm associated with the cells was calculated as the percent of total cpm added for each time point studied. Data in the table is expressed as cell associated radioactivity as % of total added. Each reported result is a mean of duplicate determinations.
# [3] = cited from earlier work
# [4] = test system: normal human keratinocytes; experiment: DNA synthesis rate (3H-thymidine incorporation) in normal human keratinocytes; type: cell-based
# Source text: Initiation of differentiation of keratinocytes is accompanied by inhibition of their growth. The rate of synthesis of DNA determined by the incorporation of radiolabeled substrate [^3 H] thymidine, is an indicator of the rate of growth of the cells. A decrease in DNA synthesis therefore indicates decrease in growth and increase in differentiation of keratinocytes.
# Methodology Used for Determining the Rate of DNA Synthesis in Keratinocytes After Treatment With Various Actives
# 1. Normal human keratinocytes isolated from neonatal foreskins by trypsin treatment were grown in DME medium/10% fetal calf serum in the presence of irradiated 3T3 mouse fibroblasts for establishing dividing keratinocyte colonies. Keratinocytes were grown under the above condition until their third passage.
# 2. For the experiments, third passage keratinocytes were plated into a serum-free keratinocyte growth medium (KGM; obtained from Clonetics Corporation, San Diego, Calif.) containing 0.15 mM calcium. 20,000 to 30,000 cells were plated into each well of 24 well cell culture plates and grown for 5 days, until the cells reach about 80% confluence.
# 3. Medium was changed to fresh medium and the various test materials were added to the medium from an ethanolic stock solution (10 A.M.). The final ethanol concentration in the cultures was kept below 0.2%. Control cultures received no tested material but were dosed with 0.2% ethanol. Each compound or combination was tested in three separate wells. By 4 P.M., 1 uCi of ^3 H-thymidine (AmerSham Corp., Sp activity 40 Ci/mmol) was added to the 1 ml medium in each well. The cells were incubated overnight and 24 hours later (10 A.M. next day) the amount of ^3 H-thymidine associated with the cellular DNA of keratinocytes was assessed as described below.
# 4. The medium was aspirated, and the wells washed with 1 ml phosphate-buffered saline. The DNA and proteins of the cells in the plate were then precipitated by adding 1 ml of ice-cold 10% trichloroacetic acid (TCA). The plates were left on ice for 30 minutes to complete the precipitation process. TCA was then aspirated and each well was then washed four times with 5% TCA. The plates were then dried on a filter pad and the cells in the wells were dissolved in 0.5 ml of 0.1N sodium hydroxide. The sodium hydroxide was then neutralized using 0.1N hydrochloric acid and the solution (1 ml total volume) was then transferred to a scintillation vial. 100 ul samples from each vial were used for protein assay using BCA protein assay reagent obtained from Pierce Chemical Company. 8 ml of a scintillation fluid (Ecolume) was added to the rest of the solution in the vial, and the vials were counted in a scintillation counter to determine the amount of radioactivity in each vial. The DNA synthesis rate was then calculated as cpm ^3 H thymidine incorporated into total cellular DNA/microgram of cell protein for each individual well. Mean and standard deviation for each group was also calculated.
# 5. All lipids listed in Tables 1-5 below were synthesized in-house. 25-OH-D3 and 1,25-(OH)2 D3 were obtained from Hoffman La Roche. Vitamin D3 was obtained from Sigma.
# keratinocytes [5] = conditions: Bikle et al., cited from earlier work; for conversion in skin / keratinocytes: MacLaughlin et al.
# [6] = test system: HL-60 cells (human myelocytic leukemia cells); conditions: cited from earlier work
# [7] = Homo sapiens, Keratinocyte, Table 5, 3 μM lipid, 0 nM 25-OH-D3, * = statistically significant growth inhibition
smiles,measurement,setting,value
"C=C1/C(=C\C=C2/CCC[C@]3(C)[C@@H]([C@H](C)CCCC(C)(C)O)CC[C@@H]23)C[C@@H](O)C[C@@H]1O [1,25-(OH)2 D3, 1,25-dihydroxycholecalciferol]",effect on DNA synthesis and differentiation of keratinocytes,"keratinocytes [1]; exogenous or endogenous, Pillai et al., Hashimoto et al.","inhibits DNA synthesis (i.e., inhibits growth) and induces differentiation of keratinocytes"
same,"Uptake by keratinocytes, cell associated radioactivity",[2]; 0 minutes,0.8 % of total added
same,"Uptake by keratinocytes, cell associated radioactivity",[2]; 2 minutes,2.7 % of total added
same,"Uptake by keratinocytes, cell associated radioactivity",[2]; 5 minutes,4.2 % of total added
same,"Uptake by keratinocytes, cell associated radioactivity",[2]; 10 minutes,13.0 % of total added
same,"Uptake by keratinocytes, cell associated radioactivity",[2]; 15 minutes,10.0 % of total added
same,"Uptake by keratinocytes, cell associated radioactivity",[2]; 30 minutes,20.0 % of total added
same,"Uptake by keratinocytes, cell associated radioactivity",[2]; 60 minutes,15.6 % of total added
same,"Uptake by keratinocytes, cell associated radioactivity",[2]; 120 minutes,26.2 % of total added
same,"Uptake by keratinocytes, cell associated radioactivity",[2]; 240 minutes,30.8 % of total added
same,uptake rate by keratinocytes / skin cells,[2],rapidly taken up
same,toxicity of higher blood levels,"[3]; higher levels of 1,25-(OH)2 D3 in blood","increase blood calcium levels and may cause heart problems, muscle weakness and contraction which may be fatal"
same,blood level after topical application,[3]; in vivo,"increases blood level of 1,25-(OH)2 D3"
same,activity at 0.001 µM,"[4]; Homo sapiens, Keratinocyte, read-out: DNA synthesis of keratinocytes, Table 1, compound alone, 1 nM, Test 1",115 ± 7.7%
same,activity at 0.01 µM,"[4]; Homo sapiens, Keratinocyte, read-out: DNA synthesis of keratinocytes, Table 1, compound alone, 10 nM, Test 1",108 ± 8.7%
same,activity at 0.01 µM,"[4]; Homo sapiens, Keratinocyte, read-out: DNA synthesis of keratinocytes, Table 1, compound alone, 10 nM, Test 2",91.9 ± 5.3%
same,activity at 0.01 µM,"[4]; Homo sapiens, Keratinocyte, read-out: DNA synthesis of keratinocytes, Table 1, compound alone, 10 nM, Test 3",91.8 ± 4.5%
same,activity at 0.1 µM,"[4]; Homo sapiens, Keratinocyte, read-out: DNA synthesis of keratinocytes, Table 1, compound alone, 100 nM, Test 1, * = statistically significant growth inhibition",102 ± 16.7%
same,activity at 0.1 µM,"[4]; Homo sapiens, Keratinocyte, read-out: DNA synthesis of keratinocytes, Table 1, compound alone, 100 nM, Test 2, * = statistically significant growth inhibition",86 ± 7.7%
same,activity at 0.1 µM,"[4]; Homo sapiens, Keratinocyte, read-out: DNA synthesis of keratinocytes, Table 1, compound alone, 100 nM, Test 3",90.3 ± 9.5%
same,activity at 1 µM,"[4]; Homo sapiens, Keratinocyte, read-out: DNA synthesis of keratinocytes, Table 1, compound alone, 1000 nM, Test 1, * = statistically significant growth inhibition",71.5 ± 2.9%
same,activity at 1 µM,"[4]; Homo sapiens, Keratinocyte, read-out: DNA synthesis of keratinocytes, Table 1, compound alone, 1000 nM, Test 2, * = statistically significant growth inhibition",56.3 ± 14.1%
same,activity at 0.01 µM,"[4]; Homo sapiens, Keratinocyte, read-out: DNA synthesis of keratinocytes, Table 4, 10 nM vitamin D3 or metabolite, no ceramide",91.8 ± 4.6%
same,activity at 0.1 µM,"[4]; Homo sapiens, Keratinocyte, read-out: DNA synthesis of keratinocytes, Table 4, 100 nM vitamin D3 or metabolite, no ceramide",90.3 ± 9.5%
same,minimal effective concentration,"[4]; Homo sapiens, Keratinocyte, read-out: concentration at which statistically significant cell growth inhibition was consistently observed",1 µM
same,catabolism to inactive metabolites by keratinocytes,keratinocytes [5],catabolized to inactive metabolites rapidly
same,degradation within skin cells,keratinocytes [5]; exogenously added,rapidly degraded within the skin cells
CCCCCCCCCCCCC/C=C/C(O)C(CO)NC(C)=O (stereo not drawn) [Ceramide (Formula A)],activity at 0.3 µM,"[4]; Homo sapiens, Keratinocyte, Table 2, ceramide alone, 0.3 μM, Test 3",146 ± 21%
same,activity at 1 µM,"[4]; Homo sapiens, Keratinocyte, Table 2, ceramide alone, 1.0 μM, Test 1, read-out: DNA synthesis of keratinocytes",115 ± 11%
same,activity at 1 µM,"[4]; Homo sapiens, Keratinocyte, Table 2, ceramide alone, 1.0 μM, Test 2, read-out: DNA synthesis of keratinocytes",83.1 ± 6%
same,activity at 3 µM,"[4]; Homo sapiens, Keratinocyte, Table 2, ceramide alone, 3.0 μM, Test 3",112 ± 13%
same,activity at 10 µM,"[4]; Homo sapiens, Keratinocyte, Table 2, ceramide alone, Test 1",105 ± 22.4%
same,activity at 10 µM,"[4]; Homo sapiens, Keratinocyte, Table 2, ceramide alone, Test 2, * = statistically significant growth inhibition",69.9 ± 10%
same,activity at 10 µM,"[4]; Homo sapiens, Keratinocyte, Table 2, ceramide alone, Test 3, * = statistically significant growth inhibition",66 ± 14%
same,activity at 3 µM,"[4]; Homo sapiens, Keratinocyte, Table 4, 3.0 μM ceramide, 0 vitamin D3 or metabolite (ethanol vehicle only)",87.9 ± 0.8%
same,activity at 3 µM,[4]; [7],88 ± 0.8%
same,minimal effective concentration,"[4]; Homo sapiens, Keratinocyte, Table 2 summary, only at the highest concentration, 2 out of 3 experiments, read-out: concentration at which statistically significant growth inhibition occurred",10 µM
"C=C1CC[C@H](O)C/C1=C/C=C1\CCC[C@]2(C)[C@@H]([C@H](C)CCCC(C)(C)O)CC[C@@H]12 [Formula 25-OH--D3, 25-hydroxycholecalciferol]","Uptake by keratinocytes, cell associated radioactivity",[2]; 0 minutes,2.5 % of total added
same,"Uptake by keratinocytes, cell associated radioactivity",[2]; 2 minutes,3.2 % of total added
same,"Uptake by keratinocytes, cell associated radioactivity",[2]; 5 minutes,0.3 % of total added
same,"Uptake by keratinocytes, cell associated radioactivity",[2]; 10 minutes,3.4 % of total added
same,"Uptake by keratinocytes, cell associated radioactivity",[2]; 15 minutes,8.3 % of total added
same,"Uptake by keratinocytes, cell associated radioactivity",[2]; 30 minutes,8.1 % of total added
same,"Uptake by keratinocytes, cell associated radioactivity",[2]; 60 minutes,6.2 % of total added
same,"Uptake by keratinocytes, cell associated radioactivity",[2]; 120 minutes,6.8 % of total added
same,"Uptake by keratinocytes, cell associated radioactivity",[2]; 240 minutes,9.8 % of total added
same,uptake rate by keratinocytes / skin cells,[2],"slower uptake; also recorded: taken up by keratinocytes at a substantially slower rate than 1,25-(OH)2 D3"
same,activity at 0.01 µM,"[4]; Homo sapiens, Keratinocyte, Table 1, compound alone, 10 nM, Test 2, read-out: DNA synthesis of keratinocytes",86.5 ± 9%
same,activity at 0.01 µM,"[4]; Homo sapiens, Keratinocyte, Table 1, compound alone, 10 nM, Test 3, read-out: DNA synthesis of keratinocytes",95.2 ± 6.8%
same,activity at 0.1 µM,"[4]; Homo sapiens, Keratinocyte, Table 1, compound alone, 100 nM, Test 1, * = statistically significant growth inhibition, read-out: DNA synthesis of keratinocytes",86.5 ± 5.4%
same,activity at 0.1 µM,"[4]; Homo sapiens, Keratinocyte, Table 1, compound alone, 100 nM, Test 2, * = statistically significant growth inhibition, read-out: DNA synthesis of keratinocytes",79.1 ± 2.6%
same,activity at 1 µM,"[4]; Homo sapiens, Keratinocyte, Table 1, compound alone, 1000 nM, Test 2, * = statistically significant growth inhibition, read-out: DNA synthesis of keratinocytes",78.9 ± 5.4%
same,activity at 0.001 µM,"[4]; Homo sapiens, Keratinocyte, Table 3, 25-OH-D3 alone, 1 nM (second line), read-out: DNA synthesis of keratinocytes",99.3 ± 1.91%
same,activity at 0.01 µM,"[4]; Homo sapiens, Keratinocyte, Table 3, 25-OH-D3 alone, 10 nM, read-out: DNA synthesis of keratinocytes",97.2 ± 5.92%
same,activity at 0.1 µM,"[4]; Homo sapiens, Keratinocyte, Table 3, 25-OH-D3 alone, 100 nM, read-out: DNA synthesis of keratinocytes",86.5 ± 5.47%
same,activity at 1 µM,"[4]; Homo sapiens, Keratinocyte, Table 3, 25-OH-D3 alone, 1000 nM, read-out: DNA synthesis of keratinocytes",67.8 ± 5.92%
same,activity at 0.001 µM,"[4]; Homo sapiens, Keratinocyte, Table 3, 25-OH-D3 alone, first line, concentration printed as 1 nM, read-out: DNA synthesis of keratinocytes",100 ± 4.71%
same,activity at 0.1 µM,"[4]; Homo sapiens, Keratinocyte, Table 5, 100 nM 25-OH-D3, no ceramide, read-out: DNA synthesis of keratinocytes",88.5 ± 7.2%
same,minimal effective concentration,"[4]; Homo sapiens, Keratinocyte, read-out: concentration at which statistically significant cell growth inhibition was consistently observed, Table 1 summary, compound alone, only at this concentration",1 µM
same,conversion in skin / keratinocytes,keratinocytes [5],"converted to 1,25-(OH)2 D3 in keratinocyte cultures"
CCCCCCCCCCCCCCC(O)CN(CCO)C(C)=O (stereo not drawn) [pseudoceramide (Formula C)],activity at 3 µM,[4]; [7],51.4 ± 4%
CC1=C(/C=C/C(C)=C/C=C/C(C)=C/C(=O)O)C(C)(C)CCC1 [retinoic acid],HL-60 cell differentiation,[6],induces differentiation of HL-60 cells
same,keratinocyte differentiation,keratinocytes [1],prevents differentiation of keratinocytes
C=C1CC[C@H](O)C/C1=C/C=C1\CCC[C@]2(C)[C@@H]([C@H](C)CCCC(C)C)CC[C@@H]12 [vitamin D3],keratinocyte prodifferentiating activity,"keratinocytes [1]; applied topically to skin, MacLaughlin et al.",neither has keratinocyte prodifferentiating activity
same,statistically significant growth inhibition,"[4]; Table 4 summary, vitamin D3 alone",does not show statistically significant growth inhibition
same,conversion in skin / keratinocytes,keratinocytes [5],nor is it converted in the skin to 25-OH-D3 derivative
